Laboratory results taken from BindingDB's records for doi:10.1016/S0960-894X(00)80224-3 (1992).

biological target: Gastrin/cholecystokinin type B receptor (Cavia porcellus); experiment: Displacement of [125I]CCK-OP radioligand from Cholecystokinin type B receptor of guinea pig cortical membranes

IC50 [µM] | Compound
> 10 | O=C(N[C@H]1C(=O)N(c2ccccc2)C[C@@H]1C(=O)O)c1ccc2ccccc2c1 [(3S,4R)-4-[(Naphthalene-2-carbonyl)-amino]-5-oxo-1-phenyl-pyrrolidine-3-carboxylic acid]
> 10 | O=C(N[C@@H]1C(=O)N(c2ccccc2F)C[C@@H]1C(=O)O)c1ccc2ccccc2c1 [(3S,4S)-1-(2-Fluoro-phenyl)-4-[(naphthalene-2-carbonyl)-amino]-5-oxo-pyrrolidine-3-carboxylic acid]
> 10 | O=C(N[C@@H]1C(=O)N(c2ccccc2F)C[C@@H]1C(=O)O)c1cnc2ccccc2c1 [(3S,4S)-1-(2-Fluoro-phenyl)-5-oxo-4-[(quinoline-3-carbonyl)-amino]-pyrrolidine-3-carboxylic acid]
> 10 | O=C(N[C@@H]1C(=O)N(c2ccccc2)C[C@@H]1C(=O)O)c1ccc2ccccc2c1 [(3S,4S)-4-[(Naphthalene-2-carbonyl)-amino]-5-oxo-1-phenyl-pyrrolidine-3-carboxylic acid]
